Broadly, the pIC50 is the negative decadic logarithm of the IC50, by convention in mol/L.

The text below walks through data of patent publication US9650339B2, “Inhibitors of histone demethylases” (Gilead Sciences, Inc., priority 2013, dated 2017).

pIC50: −log10 of the molar value.

One assay has as its system H3K4me3 mark. Kind of assay: Histone lysine demethylase immunofluorescence assay, non-transfected U2OS cells. The assay is classed as cell-based. Particulars: Homo sapiens, staining of the H3K4me3 mark, 20 hours incubation with compound. The method in brief:
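Non-transfected U2OS cells incubated with compounds 20 h in DMEM/5% FBS. Fixed cells immunostained for H3K4me3 with Hoechst counterstain and imaged by high-throughput microscopy. IC50 based on average cellular H3K4me3 staining.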
For the molecule `COc1ccccc1CN1CCC(NC(=O)CNCc2cc(CNC3CC3)ccn2)CC1` [Compound 20, 2-[({4-[(cyclopropylamino)-methyl]pyridin-2-yl}methyl)amino]-N-{1-[(2-methoxyphenyl)methyl]-piperidin-4-yl}acetamide], the pIC50 is 5.60 to 6.60.

With `CCN(CC)CCCCNCc1cc(C2NCCCN2C)ccn1` (stereo not drawn) [Compound 68, [4-(diethylamino)butyl]({[4-(1-methyl-1,3-diazinan-2-yl)pyridin-2-yl]methyl})amine], the pIC50 was greater than 6.60.

Another assay has as its target T1, KDM2B (FBXL10) (Homo sapiens, UniProt Q8NHM5).
T1 sequence (Q8NHM5 1-650): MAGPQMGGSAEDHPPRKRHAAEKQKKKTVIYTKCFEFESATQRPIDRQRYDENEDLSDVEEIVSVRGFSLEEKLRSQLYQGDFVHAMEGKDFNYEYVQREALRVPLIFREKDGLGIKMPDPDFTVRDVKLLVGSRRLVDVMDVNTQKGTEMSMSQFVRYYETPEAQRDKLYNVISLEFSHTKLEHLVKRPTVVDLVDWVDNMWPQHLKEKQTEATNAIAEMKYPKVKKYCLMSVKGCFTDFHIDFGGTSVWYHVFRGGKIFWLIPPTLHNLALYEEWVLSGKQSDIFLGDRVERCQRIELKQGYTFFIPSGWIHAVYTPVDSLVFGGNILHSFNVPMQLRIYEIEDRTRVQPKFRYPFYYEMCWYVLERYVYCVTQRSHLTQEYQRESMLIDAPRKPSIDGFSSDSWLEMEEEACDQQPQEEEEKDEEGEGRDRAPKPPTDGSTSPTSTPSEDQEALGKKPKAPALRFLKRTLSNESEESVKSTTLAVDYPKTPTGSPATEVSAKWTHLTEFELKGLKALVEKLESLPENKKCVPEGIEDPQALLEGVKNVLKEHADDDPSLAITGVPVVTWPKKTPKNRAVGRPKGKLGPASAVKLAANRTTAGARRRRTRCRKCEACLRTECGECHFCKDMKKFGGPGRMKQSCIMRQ
Description: Histone lysine demethylase AlphaLISA assay, KDM2B. The assay is classed as biochemical. The following applies: read-out: KDM2B HDME Inhibition IC50. Put shortly: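 Biotinylated methylated H3 peptides (K9, K4, K27 or K36 marks) served as substrate, with 25 μM L-Asc and 10 μM α-KG. Enzymes were preincubated 10 min, then exposed to compounds (3% DMSO solutions) 10 min; product detected by AlphaLISA acceptor and streptavidin donor beads at room temperature in dark.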
For orientation: Bead proximity is the source of the signal in Alpha formats.
Regarding `CN(C)CCCCNCc1cc(CN)ccn1` [Compound 2, [2-({[4-(dimethylamino)butyl]-amino}methyl)pyridin-4-yl]methanamine], the pIC50 is less than 5.60.

Take `CN(C)CCNCc1ccnc(CNCCCN(C)Cc2ccccc2)c1` [Compound 18, benzyl[3-({[4-({[2-(dimethylamino)ethyl]-amino}methyl)pyridin-2-yl]methyl}-amino)propyl]-methylamine]: the pIC50 is less than 5.60.

On to `COCCNCc1ccnc(CNCCCN(C)Cc2ccccc2)c1` [Compound 19, benzyl(3-{[(4-{[(2-methoxyethyl)amino]-methyl}pyridin-2-yl)methyl]amino}-propyl)methylamine], for which the pIC50 was less than 5.60.

Take `COc1ccccc1CN1CCC(NC(=O)CNCc2cc(CNC3CC3)ccn2)CC1` [Compound 20, 2-[({4-[(cyclopropylamino)-methyl]pyridin-2-yl}methyl)amino]-N-{1-[(2-methoxyphenyl)methyl]-piperidin-4-yl}acetamide]: the pIC50 is less than 5.60.
